Laboratory results taken from patent US6790838B2, “Combinations and methods for promoting in vivo liver cell proliferation and enhancing in vivo liver-directed gene transduction” (Amgen, Inc., priority 1999, dated 2004).

Assays:
[1] = system: hepatocytes; experiment: Hepatocyte proliferation in vivo by BrdU labeling after growth factor injection; design: species or system rat; details: for zones of the liver showing cell proliferation / time after injection having maximum liver cell proliferation: KGF 1 mg/kg or T3 4 mg/kg s.c.; for proportion of hepatocytes proliferating (BrdU labelled, S-phase) at 24 hours: T3 4 mg/kg and/or KGF 1 mg/kg s.c. at 0 hours, BrdU 1 hour before sacrifice; for dose producing maximal hepatocyte proliferation at 24 hours: dose response curves, subcutaneous injection, single factor; for time after injection having maximum liver cell proliferation: time course 6-30 hours
Method: Male Wistar rats weighing 200-250 grams were used. They were housed in a temperature and light controlled room (12 hour light/dark cycle) and were allowed water and food ad libitum.
T3 (Sigma, St. Louis, Mo. USA), 4 mg per kilogram of body weight was dissolved in 100 μl of 0.01 M NaOH in […] NaCl and administered by subcutaneous injection in the flank region of the animal.
Lyophilized KGF (full lenght recombinant KGF, AMGEN, Thousand Oaks, Calif.) 1 mg per kilogram of body weight was dissolved in 100 μl of a suitable buffer (0.01% by weight polyoxyethylenesorbitan monolaurate (TWEEN 20, Sigma) solution) and administered by subcutaneous injection in the flank region of the animal.
Measurement of liver cell proliferation was performed by BrdU labeling. BrdU (Sigma) (50 mg/kg dissolved in 800 μl of 0.9% NaCl) was injected intraperitoneally 1 hour prior to sacrifice. Livers of the animals were removed and fixed in 60% methanol, 30% chloroform and 10% glacial acetic acid before routine histological processing and embedding in wax blocks. The incorporation of BrdU into hepatic nuclei was detected in 4 μm thick sections using a mouse monoclonal antibody (Dako, Glostrup, Denmark), followed by a biotinilated rabbit anti-mouse secondary antibody (Dako). Visualization was achieved by the indirect peroxidase technique using diaminobenzidine tetrahydrochloride dihydrate (Aldrich Chemical, Milwaukee, Wis. USA) as a substrate. The labeling index and percentage of hepatic mitoses was determined by counting 2000 hepatocytes per section from consecutive light microscopy fields. See Forbes, et al., Gene Therapy 5:552-555 at 553 (1998)(incorporated herein by reference in its entirety).
Dose response curves were initially performed to identify the dose at which KGF and T3 independently cause maximum hepatocyte proliferation at 24 hours.
The times after injection having maximum liver cell proliferation (as measured by DNA synthesis), were also independently established for each of the individual factors. An injection corresponding to the dose producing maximal cell proliferation, as established in Example 1, was independently administered to 2 groups of subjects, one group for each factor. Dividing cells were labelled by administering BrdU 1 hour prior to sacrifice. At 6, 9, 12, 15, 18, 24, and 30 hours after injection three animals of each group were sacrificed and labelled liver cells counted.
While searching for a manner of producing a clinically acceptable level of liver cell proliferation without a need for prior injury to the liver, a series of experiments were performed whereby a combination of factors was administered to subjects and liver cell proliferation measured 24 hours after administration. […] factor combinations were independently tested, each combination in a different group of animals. A first group received 4 mg/kg T3 at 0 hours. A second group received 1 mg/kg KGF at 0 hours. A third group received 1 mg/kg KGF and 4 mg/kg T3 at 0 hours. A fourth group served as control and received the vehicle or diluent only.

[2] = system: hepatocytes; details: retroviral vector given after growth factor administration; literature reports (Bosch 1996, Kosai 1998, Forbes 1998); cited from earlier work
[3] = system: hepatocytes; format: in vivo, rat; details: for proportion of hepatocytes transfected/transduced (β-galactosidase): growth factor at hour 0, 1 ml retrovirus intraportally at 24 hours, killed 9 days after vector; for zones of the liver where transfected hepatocytes were found: intraportal vector at 24 hours, 9 days after vector
Method: Animals were anesthetized with isoflurane. A midline laparotomy was performed, the bowel was deflected to the left and wrapped in normal saline-soaked gauze. The portal vein and hepatic artery were clamped using micro-aneurysm clips, the portal vein was cannulated with a 26-gauge needle proximal to the clip and 1 ml of retroviral supernatant was injected over 5 minutes. Hemostasis was achieved by direct pressure to the portal vein and topical thrombin (Sigma) application. The clips were removed and the abdomen sutured, and the animals were allowed to recover in a warm, quite environment. […] For peripheral vein injection, 1 ml of the retrovirus/DOGS complex was injected via tail vein as a bolus.
Transduction of liver cells was measured by β-galactosidase activity. Animals were anesthetized and sacrificed by exsanguination. The liver was removed and frozen in liquid nitrogen. Ten-micron frozen sections were cut on to glass slides, fixed in a solution of 1.25% glutaraldehyde at 4° C., washed with phosphate buffered saline (PBS) then covered in X-gal (Gibco BRL, Grand Island, N.Y.) solution (1 mg/ml, pH 7.4) and incubated overnight at 37° C. Sections were then washed in PBS, counterstained lightly with eosin or carmalum stain, dehydrated and mounted in pertex (Cellpath, Hemel Hempstead, UK). The proportion of hepatocytes expressing nuclear β-galactosidase was calculated by counting 2000 hepatocytes per section from three separate areas.
At hour 0, several groups of four rats received an administration of either a single growth factor (either 4 mg/kg T3 or 1 mg/kg KGF) or the combination of 4 mg/kg T3/1 mg/kg KGF. A control group of three rats received injections of the growth factor diluents only. At 24 hours all rats were injected intraportally with 1 ml of retrovirus during temporary hepatic artery and portal vein occlusion. All rats were killed 9 days following vector administration.

Molecule	zones of the liver showing cell proliferation [1]	proportion of hepatocytes proliferating (BrdU labelled, S-phase) at 24 hours [1]	dose producing maximal hepatocyte proliferation at 24 hours [1] [mg/kg]	time after injection having maximum liver cell proliferation [1] [h]	liver cells (hepatocytes) transduced in vivo [2]	proportion of hepatocytes transfected/transduced (β-galactosidase) [3]	zones of the liver where transfected hepatocytes were found [3]
N[C@@H](Cc1cc(I)c(Oc2ccc(O)c(I)c2)c(I)c1)C(=O)O [T3, tri-iodothyronine, reference compound]	predominantly in the mid-zonal region	approximately 10%	4	24	about 1.3%	approximately 1.2%	mostly found in the mid-zonal region
hepatocyte growth factor: hepatocyte growth factor, cited from Kosai et al.					1.3%		
KGF: full length recombinant keratinocyte growth factor polypeptide (AMGEN) (protein, UniProt P21781 1-194, looked up, full-length) MHKWILTWILPTLLYRSCFHIICLVGTISLACNDMTPEQMATNVNCSSPERHTRSYDYMEGGDIRVRRLFCRTQWYLRIDKRGKVKGTQEMKNNYNIMEIRTVAVGIVAIKGVESEFYLAMNKEGKLYAKKECNEDCNFKELILENHYNTYASAKWTHNGGEMFVALNQKGIPVRGKKTKKEQKTAHFLPMAIT	all zones of the liver	approximately 9%	1	24	2%	approximately 1%	found in all zones of the liver
